Measured values taken from patent publication US20250215006A1, “TRICYCLIC COMPOUNDS AS INHIBITORS OF WRN” (Incyte Corporation, priority 2023, published 2025).
pIC50: −log10 of the molar value.

Columns and labels:
WRN [1] = biological target: T1, WRN (Homo sapiens, UniProt Q14191); experiment: WRN Helicase activity assay (fluorescence DNA unwinding); format: biochemical; details: 1-hr pre-incubation with enzyme; 100 μM ATP, 25 nM forked dsDNA, 1 nM WRN; geometric mean of at least 2 replicates
T1 construct: A His-tagged construct of WRN (AA S2-S1235) was produced and used for the ATPase assay; His; made in house; host or cells: Sf9 insect cells (baculovirus, pFastBac1)
T1 sequence (Q14191 2-1235): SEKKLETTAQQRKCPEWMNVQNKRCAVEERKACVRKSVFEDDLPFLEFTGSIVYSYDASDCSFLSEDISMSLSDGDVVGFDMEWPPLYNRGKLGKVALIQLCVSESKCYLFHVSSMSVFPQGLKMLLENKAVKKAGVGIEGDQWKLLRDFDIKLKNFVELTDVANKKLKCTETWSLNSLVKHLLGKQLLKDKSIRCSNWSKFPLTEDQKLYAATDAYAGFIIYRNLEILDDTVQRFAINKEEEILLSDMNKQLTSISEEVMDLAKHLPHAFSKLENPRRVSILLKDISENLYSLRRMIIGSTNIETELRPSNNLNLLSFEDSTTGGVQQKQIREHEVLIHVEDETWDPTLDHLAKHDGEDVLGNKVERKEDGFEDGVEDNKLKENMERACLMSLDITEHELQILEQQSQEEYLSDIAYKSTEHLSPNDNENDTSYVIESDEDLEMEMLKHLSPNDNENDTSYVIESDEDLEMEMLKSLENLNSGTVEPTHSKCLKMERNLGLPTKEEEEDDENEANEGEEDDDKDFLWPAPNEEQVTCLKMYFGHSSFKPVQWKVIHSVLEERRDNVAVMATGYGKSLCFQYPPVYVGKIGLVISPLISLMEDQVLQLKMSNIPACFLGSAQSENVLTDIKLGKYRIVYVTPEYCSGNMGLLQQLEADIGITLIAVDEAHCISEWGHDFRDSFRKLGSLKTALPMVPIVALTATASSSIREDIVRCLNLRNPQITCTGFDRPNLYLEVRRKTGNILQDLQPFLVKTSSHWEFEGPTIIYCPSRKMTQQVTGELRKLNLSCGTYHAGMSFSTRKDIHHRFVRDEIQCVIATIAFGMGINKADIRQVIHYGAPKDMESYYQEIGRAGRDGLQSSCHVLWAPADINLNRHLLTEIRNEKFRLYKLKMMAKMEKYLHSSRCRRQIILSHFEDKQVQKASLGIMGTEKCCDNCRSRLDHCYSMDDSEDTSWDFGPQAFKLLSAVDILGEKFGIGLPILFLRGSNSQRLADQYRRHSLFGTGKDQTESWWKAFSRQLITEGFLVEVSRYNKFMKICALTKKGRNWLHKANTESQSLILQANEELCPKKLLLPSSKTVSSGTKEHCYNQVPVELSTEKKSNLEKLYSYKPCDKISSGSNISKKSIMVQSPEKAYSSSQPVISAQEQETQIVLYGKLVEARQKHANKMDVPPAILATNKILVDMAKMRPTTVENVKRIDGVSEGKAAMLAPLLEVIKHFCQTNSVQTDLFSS
Experimental: Compounds of the examples were tested for WRN helicase activity. DNA encoding the target protein, 6×HIS-TEV-WRN-517-945, was produced, cloned and transfected as detailed in Example D. To determine the inhibitory properties of the compounds, a 384 wells plate-based Helicase assay was set up to measure the extent of DNA unwinding (Helicase) activity of WRN. The WRN Helicase assay was designed to measure increase in fluorescence signal using a fluorescence based, donor-quencher paired forked dsDNA oligomer substrate (custom synthesis from Sigma-Aldrich) prepared by annealing equal amounts of oligo GPat-1 ([BHQ2][…]) and oligo GPat-2 ([…][TAM]). Continuous measurement of fluorescent signal was used to optimize the buffer conditions, concentration of enzyme (WRN), concentration of substrates (ATP & dsDNA), and the linearity of the Helicase reaction. All solutions were prepared in the following assay buffer: 50 mM Tris-HCl, pH-7.5, 2 mM MgCl2, 50 mM NaCl, 1 mM EGTA, 0.01% P-20, 0.05% BSA, and 2 mM DTT prepared with nuclease free water.
A serial dilution (1:3 scheme) of the compounds was prepared in neat DMSO and 100 nL of the compounds was dispensed in the Greiner black low volume (Greiner #784076) 384 wells assay plate. An 1-hr pre-incubation of the compounds with enzyme was included. A His-tagged construct of WRN (AA S2-S1235) was produced and used for the ATPase assay. Maximum inhibition control wells were set up with the addition of only assay buffer, and no inhibition control wells were set up with neat DMSO without test compounds. The reaction was initiated by addition of 5 μL substrate mix (200 μM ultrapure ATP, and 50 nM dsDNA prepared in assay buffer) and incubated at 25° C. for 35 min. A typical Helicase reaction consists of 25 nM forked dsDNA, 100 μM ATP, and 1 nM WRN prepared in assay buffer. The WRN Helicase reaction was quenched by the addition of 5 μL ‘STOP’ solution containing 100 mM EDTA (final EDTA concentration 33.33 mM) prepared in assay buffer. The plates were read on BMG PHERAstar FSX using 540/590 module to measure an increase of fluorescence. Data analysis was carried out using the Genedata software following % of control normalization. Fitting parameters include dose response IC50, Hill slope (n), maximum inhibition (S∞), and minimum inhibition (S0). The reported IC50 values for compounds in this invention are the geometric means of at least 2 independent replicates.

WRN [2] = biological target: T1, WRN; experiment: WRN ATPase activity assay (ADP-Glo); format: biochemical; details: 1-hr pre-incubation with enzyme; 100 μM ATP, 25 nM forked dsDNA, 1 nM WRN; geometric mean of at least 2 replicates
Experimental: Compounds of the Examples were tested for WRN ATPase activity. WRN ATPase activity catalyzes ATP hydrolysis to produce ADP and phosphate. DNA encoding the target protein, 6×HIS-TEV-WRN-517-945, was produced, cloned and transfected as detailed in Example D. The amount of ADP produced was measured using ADP-Glo™ Kinase Assay kit from Promega Corporation in a Greiner white regular volume 384 wells assay plate (Greiner #781075). Data was normalized to a standard curve generated using various ADP concentrations and the corresponding luminescent signal intensities at each concentration. The assay conditions were optimized for enzyme concentration (WRN), substrate concentrations (ATP & dsDNA), and the linearity of the ATPase reaction, in the following assay buffer: 50 mM Tris-HCl, pH-7.5, 2 mM MgCl2, 50 mM NaCl, 1 mM EGTA, 0.01% P-20, 0.05% BSA, and 2 mM DTT prepared with nuclease free water.
A serial dilution (1:3 scheme) of the compounds were prepared in neat DMSO, with 100 nL of the compounds dispensed in the 384 wells assay plate. An 1-hr pre-incubation of the compounds with enzyme was included. A His-tagged construct of WRN (AA S2-S1235) was produced and used for the ATPase assay. Maximum inhibition control wells were set up with the addition of only assay buffer, and no inhibition control wells were set up with neat DMSO without test compounds. The reaction was initiated by addition of 5 μL substrate mix (200 μM ultrapure ATP, and 50 nM dsDNA prepared in assay buffer) and incubated at 25° C. for 35 min. A forked dsDNA oligomer substrate was prepared by annealing equal amounts of oligo GPat-1 ([BHQ2][…]) and oligo GPat-2 ([…][TAM]) and was used as dsDNA substrate for WRN ATPase assay. A typical ATPase reaction consists of 25 nM forked dsDNA, 100 μM ATP, and 1 nM WRN prepared in assay buffer. The WRN ATPase reaction was stopped by the addition of 5 μL of ADP-Glo Reagent from ADP-Glo™ Kinase Assay kit and incubated for 40 min to deplete the unreacted ATP. Afterwards, 5 μL of Kinase Detection Reagent from the ADP-Glo™ Kinase Assay kit was added and incubated for 1 hr for the development of luminescence signal.
Luminesce signals were measured on BMG PHERAstar FSX using luminescence protocol. Data analysis was carried out using Genedata software following % of control normalization. Fitting parameters include dose response IC50, Hill slope (n), maximum inhibition (S∞), and minimum inhibition (S0). The reported IC50 values for compounds in this invention are the geometric means of at least 2 independent replicates.

Row | Compound | pIC50 (WRN [1]) | pIC50 (WRN [2])
1 | C=CC(=O)Nc1ccccc1-c1c(CC)nc2n(CC(=O)Nc3ccccc3)c3ccccc3n2c1=O [Example 2, N-(2-(2-Ethyl-4-oxo-10-(2-oxo-2-(phenylamino)ethyl)-4,10-dihydrobenzo[4,5]imidazo[1,2-a]pyrimidin-3-yl)phenyl)acrylamide] | > 7.00 | > 7.00
2 | C=CC(=O)Nc1ccccc1-c1c(CC)nc2n(CC(=O)Nc3ccc(C(F)(F)F)cc3)c3ccccc3n2c1=O [Example 3, N-(2-(2-Ethyl-4-oxo-10-(2-oxo-2-((4-(trifluoromethyl)phenyl)amino)ethyl)-4,10-dihydrobenzo[4,5]imidazo[1,2-a]pyrimidin-3-yl)phenyl)acrylamide] | > 7.00 | > 7.00
3 | C=CC(=O)Nc1ccccc1-c1c(CC)nc2n(CC(=O)Nc3ccc(CC)cc3)c3ccccc3n2c1=O [Example 5, N-(2-(2-Ethyl-10-(2-((4-ethylphenyl)amino)-2-oxoethyl)-4-oxo-4,10-dihydrobenzo[4,5]imidazo[1,2-a]pyrimidin-3-yl)phenyl)acrylamide] | > 7.00 | > 7.00
4 | C=CC(=O)Nc1ccccc1-c1c(CC)nc2n(CC(=O)Nc3cccc(C(F)(F)F)c3)c3ccccc3n2c1=O [Example 7, N-(2-(2-Ethyl-4-oxo-10-(2-oxo-2-((3-(trifluoromethyl)phenyl)amino)ethyl)-4,10-dihydrobenzo[4,5]imidazo[1,2-a]pyrimidin-3-yl)phenyl)acrylamide] | 6.30 to 7.00 | 6.30 to 7.00
5 | C=CC(=O)Nc1ccccc1-c1c(CC)nc2n(CC(=O)NC3CCCCC3)c3ccccc3n2c1=O [Example 10, N-(2-(10-(2-(Cyclohexylamino)-2-oxoethyl)-2-ethyl-4-oxo-4,10-dihydrobenzo[4,5]imidazo[1,2-a]pyrimidin-3-yl)phenyl)acrylamide] | 5.30 to 6.00 | 5.30 to 6.00
6 | C=CC(=O)Nc1ccc(C(=O)OC)cc1-c1c(CC)nc2n(CC(=O)Nc3ccc(F)cc3)c3ccccc3n2c1=O [Example 11, Methyl 4-acrylamido-3-(2-ethyl-10-(2-((4-fluorophenyl)amino)-2-oxoethyl)-4-oxo-4,10-dihydrobenzo[4,5]imidazo[1,2-a]pyrimidin-3-yl)benzoate] | > 7.00 | > 7.00
7 | C=CC(=O)Nc1ccc(C(=O)NCCO)cc1-c1c(CC)nc2n(CC(=O)Nc3ccc(F)cc3)c3ccccc3n2c1=O [Example 12, 4-Acrylamido-3-(2-ethyl-10-(2-((4-fluorophenyl)amino)-2-oxoethyl)-4-oxo-4,10-dihydrobenzo[4,5]imidazo[1,2-a]pyrimidin-3-yl)-N-(2-hydroxyethyl) benzamide] | 6.30 to 7.00 | 6.30 to 7.00
8 | C=CC(=O)Nc1ccc(C(=O)NCCOC)cc1-c1c(CC)nc2n(CC(=O)Nc3ccc(F)cc3)c3ccccc3n2c1=O [Example 13, 4-Acrylamido-3-(2-ethyl-10-(2-((4-fluorophenyl)amino)-2-oxoethyl)-4-oxo-4,10-dihydrobenzo[4,5]imidazo[1,2-a]pyrimidin-3-yl)-N-(2-methoxyethyl) benzamide] | 6.30 to 7.00 | 6.30 to 7.00
9 | C=CC(=O)Nc1ccc(C(=O)N2CC3CC3(O)C2)cc1-c1c(CC)nc2n(CC(=O)Nc3ccc(F)cc3)c3ccccc3n2c1=O (centres unmarked) [Example 14, N-(2-(2-Ethyl-10-(2-((4-fluorophenyl)amino)-2-oxoethyl)-4-oxo-4,10-dihydrobenzo[4,5]imidazo[1,2-a]pyrimidin-3-yl)-4-(1-hydroxy-3-azabicyclo[3.1.0]hexane-3-carbonyl)phenyl) acrylamide] | 6.30 to 7.00 | 6.30 to 7.00
10 | C=CC(=O)Nc1cc(C#N)ccc1-c1c(CC)nc2n(CC(=O)Nc3ccc(C(F)(F)F)cc3)c3ccccc3n2c1=O [Example 15, N-(5-Cyano-2-(2-ethyl-4-oxo-10-(2-oxo-2-((4-(trifluoromethyl)phenyl)amino)ethyl)-4,10-dihydrobenzo[4,5]imidazo[1,2-a]pyrimidin-3-yl)phenyl)acrylamide] | > 7.00 | > 7.00
11 | C=CC(=O)Nc1nn(C)cc1-c1c(CC)nc2n(CC(=O)Nc3ccc(C(F)(F)F)cc3)c3ccccc3n2c1=O [Example 16, N-(4-(2-Ethyl-4-oxo-10-(2-oxo-2-((4-(trifluoromethyl)phenyl)amino)ethyl)-4,10-dihydrobenzo[4,5]imidazo[1,2-a]pyrimidin-3-yl)-1-methyl-1H-pyrazol-3-yl)acrylamide] | 4.70 to 5.30 | 5.30 to 6.00

Next, values leading:

Row | pIC50 (WRN [1]) | pIC50 (WRN [2]) | Compound
12 | > 7.00 | > 7.00 | C=CC(=O)Nc1ccccc1-c1c(CC)nc2n(CC(=O)Nc3ccc(F)cc3)c3ccccc3n2c1=O [Example 1, N-(2-(2-Ethyl-10-(2-((4-fluorophenyl)amino)-2-oxoethyl)-4-oxo-4,10-dihydrobenzo[4,5]imidazo[1,2-a]pyrimidin-3-yl)phenyl)acrylamide]
13 | > 7.00 | > 7.00 | C=CC(=O)Nc1ccccc1-c1c(CC)nc2n(CC(=O)Nc3ccc(C(F)(F)F)cc3Cl)c3ccccc3n2c1=O [Example 4, N-(2-(10-(2-((2-Chloro-4-(trifluoromethyl)phenyl)amino)-2-oxoethyl)-2-ethyl-4-oxo-4,10-dihydrobenzo[4,5]imidazo[1,2-a]pyrimidin-3-yl)phenyl)acrylamide]
14 | > 7.00 | > 7.00 | C=CC(=O)Nc1ccccc1-c1c(CC)nc2n(CC(=O)Nc3ccc(F)cc3Cl)c3ccccc3n2c1=O [Example 6, N-(2-(10-(2-((2-Chloro-4-fluorophenyl)amino)-2-oxoethyl)-2-ethyl-4-oxo-4,10-dihydrobenzo[4,5]imidazo[1,2-a]pyrimidin-3-yl)phenyl)acrylamide]
15 | > 7.00 | > 7.00 | C=CC(=O)Nc1ccccc1-c1c(CC)nc2n(CC(=O)Nc3ccc(F)c(F)c3)c3ccccc3n2c1=O [Example 8, N-(2-(10-(2-((3,4-Difluorophenyl)amino)-2-oxoethyl)-2-ethyl-4-oxo-4,10-dihydrobenzo[4,5]imidazo[1,2-a]pyrimidin-3-yl)phenyl)acrylamide]
16 | > 7.00 | > 7.00 | C=CC(=O)Nc1ccccc1-c1c(CC)nc2n(CC(=O)Nc3ccc(F)cc3C)c3ccccc3n2c1=O [Example 9, N-(2-(2-Ethyl-10-(2-((4-fluoro-2-methylphenyl)amino)-2-oxoethyl)-4-oxo-4,10-dihydrobenzo[4,5]imidazo[1,2-a]pyrimidin-3-yl)phenyl)acrylamide]
